Assay results as given in patent US20230140290A1, “SALICYLAMIDE DERIVATIVES AND RELATED METHODS OF MAKING” (THE BOARD OF REGENTS OF THE UNIVERSITY OF TEXAS SY, priority 2020, published 2023).
Read-outs that look alike come from different tables or passages of the source.

What was measured:
[1] = system: A549 cells; test: Cytotoxicity assay (AlamarBlue); settings: read-out: CC50 (μM), cytotoxic concentration 50%; A549 cell line, 48 h
Method: (§1) Cytotoxicity Assay. The cytotoxicity of the compounds was analyzed by commercial kit AlamarBlue® (Invitrogen, Ref. DAL1025). A549 cells at a density of 5×10^3 cells per well in 96-well plates were seeded. […] Cells were then incubated at 37° C. for 48 h following the kit protocol. The cytotoxic concentration 50 (CC50) value was obtained using the statistical package GraphPad Prism. This assay was performed in duplicate.

[2] = system: HAdV5-GFP; test: Time of addition assay; assay type: cell-based, HAdV-5; settings: for inhibition at 0.78 µM: FIG. 10
Method: (§2) Time of Addition Curve Study. […] Parallel samples of HAdV-5 were incubated with or without the selected derivatives on ice for 1 h. […] The derivatives were added at the indicated time points before or during this incubation. After a total of 2 h at 37° C., cells were incubated for an additional 48 h at 37° C. and 5% CO2 before being analyzed for GFP expression using the Typhoon 9410 imager (GE Healthcare Life Sciences) as above.
as §2, with “Assay.” for “Curve Study.”
as §2, with “Assay.” for “Curve Study.”, “compounds” for “derivatives”, “Compounds 153 and 161” for “The derivatives”

[3] = Maximum tolerated dose (MTD); settings: female, Syrian, hamster, in vivo, ip
Method: Maximum tolerated dose (MTD). […] Before dosing, compounds were diluted in 10% DMSO, 10% Cremophor EL and 80% sodium chloride physiological solution. […] At day 14 animals were sacrificed with a lethal dose of thiopental. All inoculations were done via intraperitoneal.

[4] = Cytotoxicity assay (AlamarBlue); settings: human, A549 cells
Method: as §1

[5] = system: HAdV; test: Combination study (Chou-Talalay, CalcuSyn) in plaque assay; assay type: cell-based
From the text: Synergistic Activity of Selected Derivatives. […] To assess this hypothesis, we conducted a combination study based on the Chou-Talalay method for drug combination using the CalcuSyn software (Chou, and Talalay, Adv. Enzyme Regul. 1984, 22, 27-55; Matthews et al., PLoS One. 2017, 12, e0173303) using those compounds with lower IC50 in the plaque assay and higher SI, compound 87 from this work and compounds 17 (JMX0312), 58 (JMX0281) from our first library of derivatives. The constant ratio for each combination was selected based on the IC50 values for each drug.
Synergistic Activity of Selected Compounds. […] To evaluate, a combination study was conducted based on the Chou-Talalay method for drug combination using the CalcuSyn software. The constant ration for each combination was selected based on the IC50 values for each drug.

[6] = system: HAdV-5; test: Thermostability assay (HAdV capsid uncoating); assay type: cell-based; settings: FIG. 12; 50 μM, 24 h post-infection
From the text: The studies described above delineate the step of infection that is targeted by 161; however, the precise molecular mechanism involved in its antiviral activity remained to be established. One alternative mode of action was that 161 could block HAdV-mediated lysis of the endosome by stabilizing the virus capsid, thereby preventing uncoating. Indeed, human defensins and neutralizing antibodies have been previously shown to act through this mechanism (Smith et al., Cell Host Microbe, 2008, 3, 11-19). To determine whether 161 impacts HAdV uncoating, we used a thermostability assay that mimics virus disassembly in the endosome, which was previously described by Wiethoff et al., (Wiethoff et al., J. Virol. 2005, 79, 1992-2000), with a few modifications. In this assay, temperatures above 48° C. promote selective removal of the virus vertex region. HAdV-5 was incubated with or without 50 μM concentrations of 161 at temperatures from 37° C. to 52° C. and then added to cells to evaluate the viability of the viruses. […] Upon heating HAdV-5 to 48° C. or above, in those non-treated with compound 161, there was no GFP expression 24 h post-infection.

[7] = system: HAdV5; test: HAdV-mediated endosome disruption (α-sarcin co-delivery assay); assay type: cell-based, HAdV-5; settings: FIG. 11; virus below 12 ng; similar to ts1 mutant
[8] = system: HCMV; test: HCMV DNA quantification by real-time PCR; assay type: cell-based, human cytomegalovirus; settings: HFF cells, 72 h, 10-fold plaque IC50 (niclosamide 5 μM)
Method: HCMV DNA Quantification by Real-Time PCR. […] Then, cells were incubated for 72 h at 37° C. and 5% CO2 and HCMV DNA was purified from the cell lysate using the QIAamp DNA Mini Kit (Qiagen, Valencia, Calif.) following the manufacturer's instructions. Real-time PCR primers, mixtures and protocols were the same as previously reported (Sanchez-Cespedes et al., J. Med. Chem. 2016, 59, 5432-5448).

[9] = 0 h, FIG. 2, read-out: inhibition of HAdV infection after addition at the moment of the infection (0 min)
[10] = combination 17 & 58 (1:2.5), read-out: IC50 combination
[11] = combination 87 & 58 (1:1.7), read-out: IC50 combination
[12] = derivative alone, read-out: IC50 Single
[13] = combination 17 & 87 (1:1.5), read-out: IC50 combination

SMILES | CC50 [1] | MTD at 14 days [3] | CC50 at 48 h [4] | inhibition at 10 µM [2, 9] | IC50 [5, 10] | IC50 [5, 11] | IC50 [5, 12] | IC50 [5, 13] | other results
O=C(N[C@H](Cc1ccccc1)C(=O)Nc1ccc([N+](=O)[O-])cc1Cl)c1cc(Cl)ccc1O [Compound 60, (R)-5-Chloro-N-(1-((2-chloro-4-nitrophenyl)amino)-1-oxo-3-phenylpropan-2-yl)-2-hydroxybenzamide] | 77.9 µM | – | – | – | – | – | – | – | inhibition at 10 µM ([2]; 20 min, read-out: inhibition of HAdV infection when added after 20 min p.i., FIG. 2): < 50%
CC(C)[C@H](NC(=O)c1cc(Cl)ccc1O)C(=O)Nc1ccc([N+](=O)[O-])cc1Cl [Compound 58, (S)-5-Chloro-N-(1-((2-chloro-4-nitrophenyl)amino)-3-methyl-1-oxobutan-2-yl)-2-hydroxybenzamide] | – | 50 mg/kg | 200000 nM | < 50% | 250 ± 20 nM | 500 ± 40 nM | 450 ± 60 nM | – | –
O=C(Nc1ccc([N+](=O)[O-])cc1F)c1cc(Cl)ccc1O [Compound 11, 5-Chloro-N-(2-fluoro-4-nitrophenyl)-2-hydroxybenzamide] | 10.9 µM | – | – | – | – | – | – | – | loss of inhibition when added between 20 and 40 p.i. ([2]; FIG. 2, 5 μM): 34%
O=C(NCC1CCCCC1)c1cc(Cl)ccc1O [Compound 161, 5-Chloro-N-(cyclohexylmethyl)-2-hydroxybenzamide] | – | – | – | – | – | – | – | – | inhibition at 0.78 µM ([2]; 0 h, read-out: inhibitory activity at 0 min post-infection): 95.3%; inhibition at 0.78 µM ([2]; 20 min, read-out: inhibitory activity at 20 min p.i.): 30.7%; GFP expression of viruses heated to 48° C. [6]: significant levels of GFP expression; GFP expression of viruses heated to 52° C. [6]: some residual expression; HAdV-mediated endosome lysis [7]: prevented HAdV-mediated endosome lysis
O=C(Nc1cc(F)cc(C(F)(F)F)c1)c1cc(Cl)ccc1O [Compound 17, 5-Chloro-N-(3-fluoro-5-(trifluoromethyl)phenyl)-2-hydroxybenzamide] | – | 12.5 mg/kg | 120000 ± 33600 nM | < 50% | 100 ± 10 nM | – | 180 ± 10 nM | 90 nM | –
CC1(Nc2ccc(NC(=O)c3cc(Cl)ccc3O)c(Cl)c2)CCCC1 [Compound 87, 5-Chloro-N-(2-chloro-4-((1-methylcyclopentyl)amino)phenyl)-2-hydroxybenzamide] | 157 µM | 150 mg/kg | – | – | – | 300 ± 20 nM | 270 ± 160 nM | 140 nM | decrease of total HCMV DNA compared to the DMSO control [8]: no significant inhibition
